According to paper PMC6934184, “Selective DNA-PKcs inhibition extends the therapeutic index of localized radiotherapy and chemotherapy” (The Journal of Clinical Investigation, 2019):

Target: T1, PKN1 (PRK1) (Homo sapiens, UniProt Q16512)
T1 construct: purchased Thermo Fisher Scientific (Life Technologies) SelectScreen
Assay: SelectScreen Z'LYTE
Format: biochemical
In short: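 SelectScreen broad panel; activity (Z'LYTE, Adapta) plus binding formats. ATP: Km app for CSF1R Z'LYTE; 10 for CAMK1 Adapta. Readout = % per kinase.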

T1 sequence (Q16512 whole entry): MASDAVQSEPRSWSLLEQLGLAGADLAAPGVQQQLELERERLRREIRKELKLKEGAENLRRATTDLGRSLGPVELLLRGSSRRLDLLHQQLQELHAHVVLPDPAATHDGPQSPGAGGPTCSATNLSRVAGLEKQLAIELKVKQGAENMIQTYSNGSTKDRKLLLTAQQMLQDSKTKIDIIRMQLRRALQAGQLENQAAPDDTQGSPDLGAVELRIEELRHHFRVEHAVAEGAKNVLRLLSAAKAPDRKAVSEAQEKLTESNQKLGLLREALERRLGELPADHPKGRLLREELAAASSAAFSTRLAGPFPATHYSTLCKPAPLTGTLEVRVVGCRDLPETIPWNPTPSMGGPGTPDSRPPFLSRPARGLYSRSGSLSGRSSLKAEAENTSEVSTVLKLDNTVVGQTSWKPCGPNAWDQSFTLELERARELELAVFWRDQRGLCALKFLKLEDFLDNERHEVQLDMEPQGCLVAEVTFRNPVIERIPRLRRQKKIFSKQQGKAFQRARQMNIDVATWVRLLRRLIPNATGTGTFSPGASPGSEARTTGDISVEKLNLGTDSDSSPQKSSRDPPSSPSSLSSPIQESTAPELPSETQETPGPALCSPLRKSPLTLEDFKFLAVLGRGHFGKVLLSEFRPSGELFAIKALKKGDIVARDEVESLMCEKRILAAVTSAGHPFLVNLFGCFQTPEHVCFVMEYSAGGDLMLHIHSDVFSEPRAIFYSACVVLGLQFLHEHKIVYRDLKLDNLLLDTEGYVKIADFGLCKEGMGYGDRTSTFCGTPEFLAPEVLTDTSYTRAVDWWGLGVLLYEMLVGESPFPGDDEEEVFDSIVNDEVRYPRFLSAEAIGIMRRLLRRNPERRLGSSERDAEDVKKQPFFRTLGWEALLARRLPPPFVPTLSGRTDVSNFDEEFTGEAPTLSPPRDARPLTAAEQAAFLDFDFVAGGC

CN(C(=O)CN1CCOCC1)c1ccc2sc3c(-c4cccc5c(=O)cc(N6CC7CCC(C6)O7)oc45)cccc3c2c1 [NU5455]
inhibition at 1 µM: 3.6%
